According to patent US20140045823A1 (Neurocrine Biosciences, Inc., priority 2012, published 2014):

biological target: T1, human GPR119 (Homo sapiens, UniProt Q8TDV5); test: AlphaScreen cAMP assay in MIN6 cells stably transfected with human GPR119; format: cell-based; details: Min-6/hGPR119 cells, 45 min at room temperature
T1 construct: expression vector for human GPR119 cDNA (Acc. No. NP_848566); expressed in transfected cells; Min-6/hGPR119
T1 sequence (Q8TDV5 1-335): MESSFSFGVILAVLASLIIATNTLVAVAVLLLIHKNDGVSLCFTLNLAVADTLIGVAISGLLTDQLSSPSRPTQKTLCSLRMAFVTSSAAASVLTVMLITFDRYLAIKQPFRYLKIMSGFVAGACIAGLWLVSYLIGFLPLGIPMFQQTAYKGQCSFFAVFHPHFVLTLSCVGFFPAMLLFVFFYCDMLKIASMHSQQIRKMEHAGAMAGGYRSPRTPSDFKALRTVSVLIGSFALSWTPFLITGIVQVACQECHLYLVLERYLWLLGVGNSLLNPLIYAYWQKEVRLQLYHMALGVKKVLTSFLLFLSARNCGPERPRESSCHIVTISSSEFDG
Outline: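 MIN6 cells stably expressing human GPR119, seeded 10000/well and grown 24 h, were exposed to compound in pH 7.4 buffer with 0.5 mM IBMX, 0.1% BSA and 1% DMSO for 45 min at room temperature. Intracellular cAMP then measured by AlphaScreen.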

Compound	EC50 [nM]
COC1CCN(C(=O)c2ccc(-c3ncc(C(=O)N(C4CC4)C4CCN(C(=O)OC(C)(C)C)CC4)cn3)c(F)c2)CC1 [Example 133, 4-(Cyclopropyl-{2-[2-fluoro-4-(4-methoxy-piperidine-1-carbonyl)-phenyl]-pyrimidine-5-carbonyl}-amino)-piperidine-1-carboxylic acid tert-butyl ester]	516
COCc1cccc(NC(=O)c2ccc(-c3ncc(C(=O)N(C4CC4)C4CCN(C(=O)OC(C)(C)C)CC4)cn3)cc2)c1 [Example 240, 4-(Cyclopropyl-{2-[4-(3-methoxymethyl-phenylcarbamoyl)-phenyl]-pyrimidine-5-carbonyl}-amino)-piperidine-1-carboxylic acid tert-butyl ester]	171
COC1CCN(C(=O)c2ccc(-c3ncc(C(=O)N(C4CC4)C4CCN(C(=O)OC(C)(C)C)CC4)cn3)cc2)CC1 [Example 181, 4-(Cyclopropyl-{2-[4-(4-methoxy-piperidine-1-carbonyl)-phenyl]-pyrimidine-5-carbonyl}-amino)-piperidine-1-carboxylic acid tert-butyl ester]	206
CC(C)(C)OC(=O)N1CCC(N(C(=O)c2cnc(-c3ccc(C(=O)NCC4(C)CCCO4)c(F)c3)nc2)C2CC2)CC1 (centres unmarked) [Example 144, 4-[Cyclopropyl-(2-{3-fluoro-4-[(2-methyl-tetrahydro-furan-2-ylmethyl)-carbamoyl]-phenyl}-pyrimidine-5-carbonyl)-amino]-piperidine-1-carboxylic acid tert-butyl ester]	230
CC(C)(C)OC(=O)N1CCC(N(C(=O)c2cnc(-c3ccc(C(=O)NCCn4ccc(C5CC5)n4)c(F)c3)nc2)C2CC2)CC1 [Example 169, 4-[Cyclopropyl-(2-{4-[2-(3-cyclopropyl-pyrazol-1-yl)-ethylcarbamoyl]-3-fluoro-phenyl}-pyrimidine-5-carbonyl)-amino]-piperidine-1-carboxylic acid tert-butyl ester]	179
CC(C)(C)OC(=O)N1CCC(N(C(=O)c2cnc(-c3ccc(C#N)cc3)nc2)C2CC2)CC1 [Example 72, 4-{[2-(4-Cyano-phenyl)-pyrimidine-5-carbonyl]-cyclopropyl-amino}-piperidine-1-carboxylic acid tert-butyl ester]	14
CN(C)c1ccc(-c2ncc(C(=O)N(C3CC3)C3CCN(C(=O)OC(C)(C)C)CC3)cn2)cn1 [Example 93, 4-{Cyclopropyl-[2-(6-dimethylamino-pyridin-3-yl)-pyrimidine-5-carbonyl]-amino}-piperidine-1-carboxylic acid tert-butyl ester]	209
CC(C)(C)OC(=O)N1CCC(N(C(=O)c2cnc(-c3ccc(C(=O)Nc4ccccc4)cc3)nc2)C2CC2)CC1 [Example 183, 4-{Cyclopropyl-[2-(4-phenylcarbamoyl-phenyl)-pyrimidine-5-carbonyl]-amino}-piperidine-1-carboxylic acid tert-butyl ester]	63
CC(C)(C)OC(=O)N1CCC(N(C(=O)c2cnc(-c3ccc(C(=O)NCc4ccccn4)c(F)c3)nc2)C2CC2)CC1 [Example 105, 4-[Cyclopropyl-(2-{3-fluoro-4-[(pyridin-2-ylmethyl)-carbamoyl]-phenyl}-pyrimidine-5-carbonyl)-amino]-piperidine-1-carboxylic acid tert-butyl ester]	144
CC(C)(C)OC(=O)N1CCC(N(C(=O)c2cnc(-c3ccc(C(=O)NCC4CCCO4)c(F)c3)nc2)C2CC2)CC1 (centres unmarked) [Example 146, 4-[Cyclopropyl-(2-{3-fluoro-4-[(tetrahydro-furan-2-ylmethyl)-carbamoyl]-phenyl}-pyrimidine-5-carbonyl)-amino]-piperidine-1-carboxylic acid tert-butyl ester]	64
CC(C)(C)OC(=O)N1CCC(N(C(=O)c2cnc(-c3ccc(C(=O)NCc4cccnc4)c(F)c3)nc2)C2CC2)CC1 [Example 165, 4-[Cyclopropyl-(2-{3-fluoro-4-[(pyridin-3-ylmethyl)-carbamoyl]-phenyl}-pyrimidine-5-carbonyl)-amino]-piperidine-1-carboxylic acid tert-butyl ester]	173
CC(C)OC(=O)N1CCC(N(C(=O)c2cnc(-c3ccc(CC#N)cc3)nc2)C2CC2)CC1 [Example 60, 4-{[2-(4-Cyanomethyl-phenyl)-pyrimidine-5-carbonyl]-cyclopropyl-amino}-piperidine-1-carboxylic acid isopropyl ester]	76
CC(C)(C)OC(=O)N1CCC(N(C(=O)c2cnc(-c3ccc(C(=O)NCc4cccnc4)cc3)nc2)C2CC2)CC1 [Example 229, 4-[Cyclopropyl-(2-{4-[(pyridin-3-ylmethyl)-carbamoyl]-phenyl}-pyrimidine-5-carbonyl)-amino]-piperidine-1-carboxylic acid tert-butyl ester]	177
COC[C@@H]1CCCN1C(=O)Cc1ccc(-c2ncc(C(=O)N(C3CC3)C3CCN(C(=O)OC(C)(C)C)CC3)cn2)cc1 [Example 212, 4-[Cyclopropyl-(2-{4-[2-(2-methoxymethyl-pyrrolidin-1-yl)-2-oxo-ethyl]-phenyl}-pyrimidine-5-carbonyl)-amino]-piperidine-1-carboxylic acid tert-butyl ester]	350
CC(C)(C)OC(=O)N1CCC(N(C(=O)c2cnc(-c3ccc(C(=O)N4CCOCC4)c(F)c3)nc2)C2CC2)CC1 [Example 155, 4-(Cyclopropyl-{2-[3-fluoro-4-(morpholine-4-carbonyl)-phenyl]-pyrimidine-5-carbonyl}-amino)-piperidine-1-carboxylic acid tert-butyl ester]	448
CN(CC#N)C(=O)c1ccc(-c2ncc(C(=O)N(C3CC3)C3CCN(C(=O)OC(C)(C)C)CC3)cn2)cc1F [Example 132, 4-({2-[4-(Cyanomethyl-methyl-carbamoyl)-3-fluoro-phenyl]-pyrimidine-5-carbonyl}-cyclopropyl-amino)-piperidine-1-carboxylic acid tert-butyl ester]	98
Cc1nc(CNC(=O)c2ccc(-c3ncc(C(=O)N(C4CC4)C4CCN(C(=O)OC(C)(C)C)CC4)cn3)cc2F)cs1 [Example 119, 4-[Cyclopropyl-(2-{3-fluoro-4-[(2-methyl-thiazol-4-ylmethyl)-carbamoyl]-phenyl}-pyrimidine-5-carbonyl)-amino]-piperidine-1-carboxylic acid tert-butyl ester]	147
CC(C)(C)OC(=O)N1CCC(N(C(=O)c2noc(-c3ccc(S(C)(=O)=O)cc3F)n2)C2CC2)CC1 [Example 19, 4-{Cyclopropyl-[5-(2-fluoro-4-methanesulfonyl-phenyl)-[1,2,4]oxadiazole-3-carbonyl]-amino}-piperidine-1-carboxylic acid tert-butyl ester]	21
CC(C)(C)OC(=O)N1CCC(N(C(=O)c2cnc(-c3ccc(C#N)nc3)nc2)C2CC2)CC1 [Example 83, 4-{[2-(6-Cyano-pyridin-3-yl)-pyrimidine-5-carbonyl]-cyclopropyl-amino}-piperidine-1-carboxylic acid tert-butyl ester]	15
COc1cccc(-c2ncc(C(=O)N(C3CC3)C3CCN(C(=O)OC(C)(C)C)CC3)cn2)c1 [Example 74, 4-{Cyclopropyl-[2-(3-methoxy-phenyl)-pyrimidine-5-carbonyl]-amino}-piperidine-1-carboxylic acid tert-butyl ester]	1010
CC(C)(C)OC(=O)N1CCC(N(C(=O)c2cnc(-c3ccc(C(=O)NCCn4ccc(C5CC5)n4)cc3)nc2)C2CC2)CC1 [Example 207, 4-[Cyclopropyl-(2-{4-[2-(3-cyclopropyl-pyrazol-1-yl)-ethylcarbamoyl]-phenyl}-pyrimidine-5-carbonyl)-amino]-piperidine-1-carboxylic acid tert-butyl ester]	369
CC(C)(C)OC(=O)N1CCC(N(C(=O)c2cnc(-c3ccc(OC(F)(F)F)cc3)nc2)C2CC2)CC1 [Example 77, 4-{Cyclopropyl-[2-(4-trifluoromethoxy-phenyl)-pyrimidine-5-carbonyl]-amino}-piperidine-1-carboxylic acid tert-butyl ester]	55
Cc1cn(-c2ncc(C(=O)N(C3CC3)C3CCN(C(=O)OC(C)(C)C)CC3)cn2)c(C)n1 [Example 98, 4-{Cyclopropyl-[2-(2,4-dimethyl-imidazol-1-yl)-pyrimidine-5-carbonyl]-amino}-piperidine-1-carboxylic acid tert-butyl ester]	71
COC(C)CN(C)C(=O)c1ccc(-c2ncc(C(=O)N(C3CC3)C3CCN(C(=O)OC(C)(C)C)CC3)cn2)cc1 (centres unmarked) [Example 173, 4-[Cyclopropyl-(2-{4-[(2-methoxy-propyl)-methyl-carbamoyl]-phenyl}-pyrimidine-5-carbonyl)-amino]-piperidine-1-carboxylic acid tert-butyl ester]	234
CC(C)(C)OC(=O)N1CCC(N(C(=O)c2cnc(-c3ccc(C(=O)NC4CCCOC4)c(F)c3)nc2)C2CC2)CC1 (centres unmarked) [Example 103, 4-(Cyclopropyl-{2-[3-fluoro-4-(tetrahydro-pyran-3-ylcarbamoyl)-phenyl]-pyrimidine-5-carbonyl}-amino)-piperidine-1-carboxylic acid tert-butyl ester]	168
CC(C)(C)OC(=O)N1CCC(N(C(=O)c2cnc(-c3ccc(C(=O)N4CCCC(CO)C4)c(F)c3)nc2)C2CC2)CC1 (centres unmarked) [Example 129, 4-(Cyclopropyl-{2-[3-fluoro-4-(3-hydroxymethyl-piperidine-1-carbonyl)-phenyl]-pyrimidine-5-carbonyl}-amino)-piperidine-1-carboxylic acid tert-butyl ester]	548
